Test results from patent US20050267182A1, “Urea derivatives as FLT-3 modulators” (Ambit Biosciences Corporation, priority 2003, published 2005).
pIC50: −log10 of the molar value.

How the values were obtained:
CS0002 = assay: Cell Assay: CS0002; format: cell-based; conditions: cell assay code CS0002
FLT3 = biological target: T1, FLT3 (Homo sapiens, UniProt P36888); assay: Binding constant (Kd) measurement, phage-displayed kinase competition binding assay; conditions: for Binding Assay: FLT3(DKIN): FLT3(DKIN) construct; for Binding Assay: FLT3(JMminus): FLT3(JMminus) construct; for Binding Assay: FLT3(JMplus): FLT3(JMplus) construct
T1 construct: FLT3(DKIN); made in house
T1 sequence (P36888 610-943 limits assumed): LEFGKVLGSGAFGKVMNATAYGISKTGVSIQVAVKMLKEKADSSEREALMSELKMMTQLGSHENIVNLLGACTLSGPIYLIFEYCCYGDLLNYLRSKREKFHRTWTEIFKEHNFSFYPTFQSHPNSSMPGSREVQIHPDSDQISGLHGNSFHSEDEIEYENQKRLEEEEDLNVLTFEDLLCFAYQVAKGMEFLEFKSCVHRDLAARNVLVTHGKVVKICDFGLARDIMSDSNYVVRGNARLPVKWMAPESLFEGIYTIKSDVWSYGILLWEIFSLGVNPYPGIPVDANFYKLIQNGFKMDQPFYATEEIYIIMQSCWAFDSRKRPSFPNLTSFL
Excerpt: Binding Constant (Kd) Measurements for Small-Molecule-Kinase Interactions
The term “ND” represents non-determined values.

MV4,11 cells = assay: FLT3 assay using MV4,11 cells (cellular proliferation, MTS); format: cell-based, human; conditions: cell assay code CS0001
How it was run: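 MV4,11 AML cells, […] switch to DMEM/10% FBS overnight, plated at 10,000 cells/well and exposed to serially diluted compounds in duplicate for 3 days at 37° C., 5% CO2. Proliferation read by MTS added for 2 h.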

CS0005 = assay: Cell Assay: CS0005; format: cell-based; conditions: cell assay code CS0005

| SMILES | pIC50 (CS0002) | Binding Assay: FLT3(DKIN) (FLT3) | Cell Assay: CS0001:IC50 (MV4,11 cells) | Cell Assay: CS0005:IC50 (CS0005) | Binding Assay: FLT3(JMminus) (FLT3) | Cell Assay: CS0002:IC50 (CS0002) | Binding Assay: FLT3(JMplus) (FLT3) |
| --- | --- | --- | --- | --- | --- | --- | --- |
| CC(C)(C)c1cc(NC(=O)Nc2ccc(NC(=O)c3cccc(F)n3)cc2)no1 [Compound N8] | < 5.00 | + + + + | + + + + | + + + + | – | – | – |
| CC(C)(C)c1cc(NC(=O)Nc2ccc(NC(=O)c3cccc[n+]3[O-])cc2)no1 [Compound N81] | < 5.00 | – | + + + + | + + + + | + + + + | – | – |
| CC(C)(C)c1cc(NC(=O)Nc2ccc(NC(=O)c3cn4c(n3)sc3ccccc34)cc2)no1 [Compound N73] | – | – | + + + + | + + + + | + + + + | + + + | – |
| Cc1cccc(C(=O)Nc2ccc(NC(=O)Nc3cc(C(C)(C)C)on3)cc2)n1 [Compound N121] | – | + + + + | + + + + | + + + + | – | + + | – |
| CC(C)(C)c1cc(NC(=O)Nc2ccc(NC(=O)c3cc4cccc5c4n(c3=O)CC5)cc2)no1 [Compound N60] | < 5.00 | + + + + | + + + + | + + + + | – | – | – |
| Cn1nc(-c2ccccc2)c2cc(C(=O)Nc3ccc(NC(=O)Nc4cc(C(C)(C)C)on4)cc3)sc21 [Compound N5] | – | + + + + | + + + + | + + + + | – | + + + | – |
| CC(C)(C)c1cc(NC(=O)Nc2ccc(C(=O)Nc3ccc(OCC4CCC4)cc3)cc2)no1 [Compound N100] | < 5.00 | + + + + | + + + + | + + + + | – | + + | – |
| CC(C)(C)c1cc(NC(=O)Nc2ccc(OCc3ccc4ccccc4c3)cc2)no1 [Compound G3] | – | + + + + | + + + + | + + + + | – | + + | – |
| CC(C)(C)c1cc(NC(=O)Nc2ccc(OCCCc3ccncc3)cc2)no1 [Compound G1, 1-(4-(3-(pyridin-4-yl)propoxy)phenyl)-3-(5-tert-butylisoxazol-3-yl)urea] | < 5.00 | + + + + | + + + + | + + + + | – | – | – |
| CC(C)(C)c1cc(NC(=O)Nc2ccc(NC(=O)c3cccc4nsnc34)cc2)no1 [Compound N109] | < 5.00 | + + + + | + + + + | + + + | – | – | – |
| CSc1ncc(Br)c(C(=O)Nc2ccc(NC(=O)Nc3cc(C(C)(C)C)on3)cc2)n1 [Compound N114] | – | + + + + | + + + + | + + + | – | + + | – |
| CC(=O)c1ccc(N2CCC(C(=O)Nc3ccc(NC(=O)Nc4cc(C(C)(C)C)on4)cc3)CC2)cc1 [Compound N65] | < 5.00 | + + + + | + + + + | + + + | – | – | – |
| CC(C)(C)c1cc(NC(=O)Nc2ccc(NC(=O)/C=C/c3ccccc3Cl)cc2)no1 [Compound N40] | < 5.00 | + + + + | + + + + | + + + + | – | – | – |
| CC(C)(C)c1cc(NC(=O)Nc2ccc(CCc3ccccc3)cc2)no1 [Compound A15] | – | + + + + | + + + + | + + + | – | + + | – |
| CC(C)(C)c1cc(NC(=O)Nc2ccc(NC(=O)c3ccc4sccc4c3)cc2)no1 [Compound N122] | < 5.00 | + + + + | + + + + | + + + + | – | – | – |
| CC(C)(C)c1cc(NC(=O)Nc2ccc(NC(=O)c3cn4cc(Cl)ccc4n3)cc2)no1 [Compound N3] | – | + + + + | + + + + | + + + + | – | + + | – |
| CC(=O)Oc1cccnc1C(=O)Nc1ccc(NC(=O)Nc2cc(C(C)(C)C)on2)cc1 [Compound N79] | – | – | + + + + | + + + + | + + + + | + + | – |
| CC(C)(C)c1cc(NC(=O)Nc2ccc(OCc3cc(F)cc(F)c3)cc2)no1 [Compound G16] | – | + + + + | + + + + | + + + | – | + + | – |
| CC(C)(C)c1cc(NC(=O)Nc2ccc(OCc3ccccc3Cl)cc2)no1 [Compound G10] | – | + + + + | + + + + | + + + | – | + + | – |

Second part, the compound after the results:

| pIC50 (CS0002) | Binding Assay: FLT3(DKIN) (FLT3) | Cell Assay: CS0001:IC50 (MV4,11 cells) | Cell Assay: CS0005:IC50 (CS0005) | Binding Assay: FLT3(JMminus) (FLT3) | Cell Assay: CS0002:IC50 (CS0002) | Binding Assay: FLT3(JMplus) (FLT3) | SMILES |
| --- | --- | --- | --- | --- | --- | --- | --- |
| < 5.00 | + + + + | + + + + | + + + + | – | – | – | CC(C)(C)c1cc(NC(=O)Nc2ccc(NC(=O)c3ccc4ncccc4c3)cc2)no1 [Compound N151] |
| – | + + + + | + + + + | + + + + | – | + + | – | CC(C)(C)c1cc(NC(=O)Nc2ccc(Nc3ncnc4[nH]cnc34)cc2)no1 [Compound O3] |
| < 5.00 | + + + + | + + + + | + + + + | – | – | – | CC(C)(C)c1cc(NC(=O)Nc2ccc(Nc3nc(N)nc4[nH]cnc34)cc2)no1 [Compound O6] |
| – | + + + + | + + + + | + + + | – | + + | – | COc1cc(C(=O)Nc2ccc(NC(=O)Nc3cc(C(C)(C)C)on3)cc2)nc2ccccc12 [Compound N137] |
| – | – | + + + + | + + + + | + + + + | + + | – | CC(C)(C)c1cc(NC(=O)Nc2ccc(NC(=O)c3cc4ccccc4[nH]3)cc2)no1 [Compound N161] |
| < 5.00 | + + + + | + + + + | + + + | – | – | – | CC(C)(C)c1cc(NC(=O)Nc2ccc(-c3nc(-c4ccc(Cl)cc4)no3)cc2)no1 [Compound P7] |
| – | – | + + + + | + + + + | + + + + | + + | – | CN(C)c1ccc(C(=O)Nc2ccc(NC(=O)Nc3cc(C(C)(C)C)on3)cc2)cn1 [Compound N159] |
| < 5.00 | + + + + | + + + + | + + + + | – | – | – | CC(C)(C)c1cc(NC(=O)Nc2ccc(NC(=O)c3cnccn3)cc2)no1 [Compound N136] |
| – | + + + + | + + + + | + + + + | – | + + | – | CC(C)(C)c1cc(NC(=O)Nc2ccc(NC(=O)c3cnnc4ccccc34)cc2)no1 [Compound N147] |
| – | + + + + | + + + + | + + + + | + + + + | + + | + + + | CC(C)(C)c1cc(NC(=O)Nc2ccc(NC(=O)c3ncccc3O)cc2)no1 [Compound N134] |
| < 5.00 | + + + + | + + + + | + + + + | – | – | – | Cc1nc(-c2ccc(C(=O)Nc3ccc(NC(=O)Nc4cc(C(C)(C)C)on4)cc3)s2)cs1 [Compound N173] |
| – | – | + + + + | + + + + | + + + + | + + | – | Cc1ccc2[nH]c(C(=O)Nc3ccc(NC(=O)Nc4cc(C(C)(C)C)on4)cc3)cc2c1 [Compound N127] |
| – | + + + + | + + + + | + + + + | – | + + | – | CC(C)(C)c1cc(NC(=O)Nc2ccc(NC(=O)c3ccc4ccccc4n3)cc2)no1 [Compound N143] |
| < 5.00 | + + + + | + + + + | + + + + | + + + + | – | + + + | CC(C)(C)c1cc(NC(=O)Nc2ccc(NC(=O)c3ccccn3)cc2)no1 [Compound N188] |
| – | + + + + | + + + + | + + + + | – | + + + | – | CC(C)(C)c1cc(NC(=O)Nc2ccc(NC(=O)c3cc4cc(Br)ccc4s3)cc2)no1 [Compound N126] |
| – | + + + + | + + + + | + + + + | – | + + | – | CC(C)(C)c1cc(NC(=O)Nc2ccc(Nc3nc(Cl)nc4[nH]cnc34)cc2)no1 [Compound O4] |
